Laboratory results taken from publication PMC10072296, “A Novel CCK Receptor GPR173 Mediates Potentiation of GABAergic Inhibition” (The Journal of Neuroscience, 2023).

Key:
[1] = molecular target: T1, GPR173 (CHO-GPR173 cells) (Homo sapiens, UniProt Q9NS66); assay: Ca2+ imaging assay in CHO-GPR173 cells; type: cell-based
T1 construct: expressed in transfected cells; host or cells: CHO cells, lentiviral infection (pLVX-puro-GPCR), puromycin selection, monoclonal line
Description: CHO and infected CHO cells (CHO-GPCRs) were cultivated at 37°C in a humidified atmosphere with 5% CO2 in DMEM/F-12 medium (Thermo Fisher Scientific) supplemented with 10% FBS (Natocor Industria Biológica).
For Ca^2+ mobilization by a confocal microscope, ∼8 × 10^4 transfected cells were seeded in each well of an eight-well chambered cover glass (Thermo Fisher Scientific) the day before the Ca^2+ imaging assay. Then, 5 μM Fluo-8 (AAT Bioquest) dissolved in HHBS solution was incubated with the cells for 30 min in a cell incubator and 30 min at room temperature after removing the culture medium. These cells were washed three times with HHBS, and 360 µl HHBS was added. Subsequently, images of these cells were captured by a Zeiss 710 nonlinear optical confocal microscope before and after being treated with 10× compounds or HHBS solution.
Cells were cultured at 37°C, and 5% CO2 in DMEM/F-12 medium (Thermo Fisher Scientific) containing 10% FBS (Natocor Industria Biológica) and washed with DMEM/F-12 medium once after overnight incubation.

[2] = tested on: IPSCs of pyramidal neurons in auditory cortex (AC) brain slices; assay: In vitro patch-clamp recording of laser-evoked IPSCs in pyramidal neurons; settings: devazepide 60 nM in bath solution, brain slices from mDlx-DIO-ChR2-mCherry-injected CCK-Cre mice
Description: For brain slice recording experiments, we injected rAAV9-mDlx-DIO-ChR2-mCherry-WPRE-pA (5.18E + 12 vg/ml; BrainVTA) into the AC of CCK-Cre and PV-Cre mice.
In the in vivo brain slice recording experiments, we adopted a protective cutting and recovery method to prepare acute brain slices from CCK-Cre, PV-Cre, CCK-KO, and CCK1R/2R-KO mice to achieve a higher success rate for patch clamping, as previously described ([Chen et al., 2019]). […]
We performed whole-cell recordings with a MultiClamp 700B amplifier and Digital 1440A digitizer (Molecular Devices) targeting the AC in the brain slices in room temperature aCSF containing the following (in mM): 119 NaCl, 2.5 KCl, 1.25 NaH2PO4, 24 NaHCO3, 12.5 glucose, 2 CaCl2·4H2O, and 2 MgSO4·7H2O, ∼25°C). […] We recorded IPSCs in response to the laser stimulation (1 pulse per 15 s, 5 ms in duration) under voltage-clamp recording mode (holding at −60 mV to −50 mV) for 5 min as the baseline before and for 25 min after HFLS or LFLS. […] For the normalization of recorded IPSCs in the CCK-Cre, PV-Cre, CCK-KO, and CCK1R/2R-KO mice, we selected only patched neurons with IPSCs >35 pA.

HTR1B = assay: Cell surface binding assay, Flag-HTR1B; parameters: species or system human; settings: transfected HEK293T cells (negative/background control); HHBS pH 7.4, 30 min, room temperature; confocal
Description: (§1) We transfected HEK293T cells with pCDNA3.1(+)-Flag-GPCR (purchased from Public Protein/Plasmid Library or made in our laboratory based on a pCDNA3.1(+) backbone). […] After three washes with HHBS, cells were fixed in 4% paraformaldehyde (PFA) and 4% sucrose in PBS for 15 min at room temperature. Cells were blocked in 5% normal goat serum in PBS, and staining was performed in detergent-free conditions without cell permeabilization after three washes by PBS. We used primary antibody rabbit anti-HA (catalog #8146, Cell Signaling Technology), anti-GPR173 (catalog #PA5-50 976, Thermo Fisher Scientific), and mouse anti-Flag (catalog #3724, Cell Signaling Technology) to detect HA and Flag tags. Images were captured on a Leica SP8 confocal microscope. Images within each experiment were collected using identical laser power, offset, and gain.

CCK2R = assay: Cell surface binding assay, Flag-CCK2R; parameters: species or system human; settings: transfected HEK293T cells; HHBS with 20 mM HEPES, pH 7.4, 30 min, room temperature; anti-HA/anti-Flag immunofluorescence, confocal; n = 33-40 cells, three independent experiments
Description: as §1

GPR173 = assay: Cell surface binding assay, Flag-GPR173; parameters: species or system human; settings: transfected HEK293T cells; HHBS with 20 mM HEPES, pH 7.4, 30 min, room temperature; Fanti-HA/Fanti-Flag, confocal; n = 33-40 cells, three independent experiments
Description: as §1

T1 sequence (Q9NS66 whole entry): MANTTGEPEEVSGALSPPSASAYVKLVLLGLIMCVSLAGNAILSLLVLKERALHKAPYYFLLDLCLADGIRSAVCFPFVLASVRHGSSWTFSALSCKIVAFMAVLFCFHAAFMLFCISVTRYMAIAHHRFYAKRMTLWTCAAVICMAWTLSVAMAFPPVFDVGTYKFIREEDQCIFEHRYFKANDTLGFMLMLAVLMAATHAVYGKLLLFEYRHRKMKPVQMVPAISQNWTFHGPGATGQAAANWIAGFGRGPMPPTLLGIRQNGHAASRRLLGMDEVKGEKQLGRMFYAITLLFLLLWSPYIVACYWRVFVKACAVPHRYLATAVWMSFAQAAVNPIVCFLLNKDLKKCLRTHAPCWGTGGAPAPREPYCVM

| Antagonistic action on GPR173, rank ([1]; CHO-GPR173, 10 nM CCK8s, compared with loxiglumide, YF476 and L365,260) | IC50 ([1]; read-out: IC50, antagonism of CCK8s-induced Ca2+ response) | Compound | Block of HFLS-induced potentiation of IPSCs [2] | Binding to Flag-HTR1B (HTR1B) | Binding to Flag-CCK2R (Fanti-HA/Fanti-Flag) (CCK2R) | Binding to Flag-GPR173 (GPR173) |
| --- | --- | --- | --- | --- | --- | --- |
| highest antagonistic action on GPR173 | 12.3 nM | CN1C(=O)[C@@H](NC(=O)c2cc3ccccc3[nH]2)N=C(c2ccccc2)c2ccccc21 [devazepide] | fully blocked the HFLS-induced potentiation of IPSCs | – | – | – |
| – | – | HA-tagged CCK8ns: HA-(ε-Ahx)2-CCK variant probe of nonsulfated CCK8 | – | No binding | significantly larger ratio of CCK ligand HA-tag signal to CCK2R Flag signal (Fanti-HA/Fanti-Flag) than that of the HA-(ε-Ahx)2 control group | not HA-tagged CCK4 or CCK8ns |
| – | – | HA-tagged CCK8s: HA-(ε-Ahx)2-CCK variant probe of CCK8s | – | No binding | significantly larger ratio of CCK ligand HA-tag signal to CCK2R Flag signal (Fanti-HA/Fanti-Flag) than that of the HA-(ε-Ahx)2 control group | could only bind to HA-tagged CCK8 |
